{"source": "patent US20060025483A1", "about": "“(-)-Hydroxycitric acid for protection against soft tissue and arterial calcification” (priority 2004, published 2006)", "key": {"[1]": {"system": "ACE system", "assay": "response of SBP to losartan challenge", "format": "in vivo, Spontaneously hypertensive rats (SHR)", "settings": "at 6 hours; SHR fed 100 mg HCA per day as new KMgHCA", "from_the_text": "Many factors can positively influence blood pressure, e.g., diuretics, antioxidants, regulators of sympathetic/parasympathetic tone, compounds that improve insulin sensitivity and so forth. Therefore, losartan, an angiotensin-2 receptor blocker, was utilized to discover whether the ACE system was involved in the results discussed in Example 1.\nSpontaneously hypertensive rats (SHR) were placed on a diet composed of regular rat chow (60% w/w) and table sugar (40% w/w). This diet reliably elevates blood pressure in this animal model. One group received 100 mg HCA per day in the form of a new potassium-magnesium hydroxycitrate (different from that used in Example 1) via an added 5 g HCA per kg of food mix. Systolic blood pressure and body weight were tested as in Example 1 on a weekly basis.\nWhen losartan was injected, the SBP of both groups decreased. At 6 hours, the SBP were essentially the same. […] Thus, HCA appears to decrease angiotensin-2 in rats and to lower elevated SBP. Although insulin regulation likely is a factor in the blood pressure modulating effect of HCA, this evidence argues that inhibition of ACE is also important. […]"}, "[2]": {"settings": "treated rats; cited from earlier work"}}}
{"smiles": "O=C(O)CC(O)(C(=O)O)C(O)C(=O)O", "note": "(single isomer, unassigned; (-)) [HCA, (−)-Hydroxycitric acid]", "values": [{"measurement": "decrease in SBP after losartan injection", "setting": "[1]", "result": "−21.7±7.0"}, {"measurement": "plasma levels of glucose, insulin, or free fatty acids relative to controls", "setting": "[2]", "result": "no significant differences in plasma levels of glucose, insulin, or free fatty acids"}]}
